Key:
[1] = molecular target: T1, RARα (Homo sapiens, UniProt P10276); test: RARE-luciferase reporter assay in transfected CV-1 cells (affinity to retinoic acid receptor), RARα; assay type: cell-based; settings: treated 24 hours at final concentration 10^−4M, control group 1000
T1 construct: expressed in transfected cells; host or cells: CV-1 cells (ATCC)
T1 sequence (P10276 1-462): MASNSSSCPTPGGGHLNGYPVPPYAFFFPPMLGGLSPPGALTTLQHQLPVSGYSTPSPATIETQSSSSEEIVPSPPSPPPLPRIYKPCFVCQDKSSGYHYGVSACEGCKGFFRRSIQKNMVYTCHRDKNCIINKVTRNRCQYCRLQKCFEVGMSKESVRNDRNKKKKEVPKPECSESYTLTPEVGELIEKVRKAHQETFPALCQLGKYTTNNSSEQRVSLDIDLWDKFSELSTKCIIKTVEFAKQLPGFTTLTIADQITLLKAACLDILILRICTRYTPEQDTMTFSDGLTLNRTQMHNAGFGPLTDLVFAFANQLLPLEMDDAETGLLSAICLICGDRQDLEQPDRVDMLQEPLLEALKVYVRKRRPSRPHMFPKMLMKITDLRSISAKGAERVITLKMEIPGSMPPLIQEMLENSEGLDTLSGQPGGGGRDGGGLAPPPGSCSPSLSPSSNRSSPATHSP
Summary of the method: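 CV-1 cells co-transfected with pECE-RARα or pECE-RARγ, RARE-tk-Luc reporter and β-galactosidase vector. Starting 24 h post-transfection, cells were treated for 24 h with compounds at a final 10^−4M; luciferase reporter read-out.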

[2] = test system: elastase; test: Inhibition of elastase expression in human fibroblasts (ELISA kit); assay type: cell-based; settings: 10^−4M, 24 hours, serum-free medium, relative to control group = 100
Summary of the method: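 Elastase in fibroblast culture fluid quantified by sandwich ELISA: 3 h capture, then chromophore-conjugated secondary antibody, then colour development, stopped with 1M sulfuric acid. Absorbance read at 405 nm. Expression given as % of the untreated control absorbance, with control set to 100.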

[3] = test system: procollagen type I; test: Effect on collagen biosynthesis (procollagen type I ELISA) in human fibroblasts; assay type: cell-based; settings: 10^−4M, 24 hours, serum-free medium, relative to control group = 100
Description: Human fibroblasts were seeded into 24-well plate at 1×10^5 cells per well and then cultured to 90% of growth.
For each supernatant, procollagen production was measured with procollagen type I ELISA kit.

[4] = test system: rabbits; test: Primary skin irritation test on animals (Draize P.I.I.); settings: depilated back; for P.I.I. (Primary Irritation Index): 0.5 ml of 1% solution in 1,3-butylene glycol:ethanol 7:3, observed 24 or 72 hours later; for Evaluation (skin irritation): 1% solution, according to Draize's P.I.I.
[5] = test system: white guinea pigs; test: Phototoxicity test (UVA irradiation); settings: for Evaluation (phototoxicity): 1%(w/v) solution, UVA 15 J/cm^2; for Phototoxic index: 50 μl of 1%(w/v) solution, UVA 320~380 nm 15 J/cm^2, observed 24, 48 and 72 hours
Description: Test was performed for twenty-five (25) of white guinea pigs whose backs were depilated and fixed. On both sides of the back, six(6) sites of 2 cm×2 cm, three(3) per side were sectioned. Right sites were compared as controls with no irradiation (UV non-irradiation sites) and left sites were irradiated (UV irradiation sites).
30 Minutes later, right sites were shielded with aluminum foil and UVA(320˜380 nm) was irradiated at a distance of about 10 cm therefrom using Waldmann to the final energy of 15 J/cm^2. After 24, 48 and 72 hours elapsed, skin response of guinea pig was observed. […] Evaluation was estimated for each elapsed time, i.e. 24, 48 and 72 hours and maximum scores were selected, to calculate irritation index by the following equation 3. Then, phototoxic index was calculated by the following equation 4. Irritation index=(ΣMaximum of erythema+ΣMaximum of edema)/Number of animals [Equation 3] Phototoxic index=(Irritation index of UV irradiation site)−(Irritation index of UV non-irradiation site) Equation 4]

[6] = test system: collagenase; test: Inhibition of collagenase expression in human fibroblasts (ELISA kit); assay type: cell-based; settings: 10^−4M, 24 hours, serum-free medium, relative to control group = 100
Summary of the method: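 Serum-starved human fibroblasts were treated for 24 h with 10^−4M test material in serum-free DMEM. Collagenase in the culture fluid was measured by sandwich ELISA read at 405 nm. Values are expressed as % of the untreated control (=100).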

[7] = molecular target: T2, RARγ (Homo sapiens, UniProt P13631); test: RARE-luciferase reporter assay in transfected CV-1 cells (affinity to retinoic acid receptor), RARγ; assay type: cell-based; settings: treated 24 hours at final concentration 10^−4M, control group 5000
T2 construct: expressed in transfected cells; host or cells: CV-1 cells (ATCC)
T2 sequence (P13631 1-454): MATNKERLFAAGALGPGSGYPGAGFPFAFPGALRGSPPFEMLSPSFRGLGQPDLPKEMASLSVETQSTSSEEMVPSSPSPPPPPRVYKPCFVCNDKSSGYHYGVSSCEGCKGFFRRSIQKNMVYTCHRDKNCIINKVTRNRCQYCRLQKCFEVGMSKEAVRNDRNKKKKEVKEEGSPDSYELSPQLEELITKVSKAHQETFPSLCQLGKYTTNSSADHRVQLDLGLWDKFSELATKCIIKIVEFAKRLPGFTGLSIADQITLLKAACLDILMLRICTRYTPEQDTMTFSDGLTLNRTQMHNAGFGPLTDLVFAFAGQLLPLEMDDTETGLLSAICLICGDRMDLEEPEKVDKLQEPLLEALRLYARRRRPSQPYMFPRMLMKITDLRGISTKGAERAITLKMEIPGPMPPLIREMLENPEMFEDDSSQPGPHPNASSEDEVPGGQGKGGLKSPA
Summary of the method: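 CV-1 cells in DMEM with 2.5% FBS, 5,000 per well, transfected 24 h after seeding with 10 ng pECE-RARα, pECE-RARγ, 100 ng RARE-tk-Luc reporter and 100 ng β-galactosidase vector. Read-out is RARE-driven luciferase.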

SMILES: CC(C)c1ccc(C(=O)Nc2ccc(CC(=O)NO)cc2)cc1 [Example 28, N-[4-(N-hydroxycarbamoylmethyl)phenyl][4-isopropylphenyl]carboxyamide]
- Luciferase activity RARα [1]: 12900
- Elastase expression (%) [2]: 79%
- Collagen biosynthesis (%) [3]: 121%
- P.I.I. (Primary Irritation Index) [4]: 0.765
- Evaluation (skin irritation) [4]: No irritation
- Evaluation (phototoxicity) [5]: No phototoxicity (lower value than 0.5, criterion value to be estimated as no phototoxicity)
- Phototoxic index [5]: 0
- Collagenase expression (%) [6]: 67%
- Luciferase activity RARγ [7]: 10700

SMILES: CCCCc1ccc(C(=O)Nc2ccc(CC(=O)NO)cc2)cc1 [Example 29, N-[4-(N-hydroxycarbamoylmethyl)phenyl][4-butylphenyl]carboxyamide]
- Luciferase activity RARα [1]: 18900
- Elastase expression (%) [2]: 70%
- Collagen biosynthesis (%) [3]: 132%
- P.I.I. (Primary Irritation Index) [4]: 0.234
- Evaluation (skin irritation) [4]: No irritation
- Evaluation (phototoxicity) [5]: No phototoxicity (lower value than 0.5, criterion value to be estimated as no phototoxicity)
- Phototoxic index [5]: 0
- Collagenase expression (%) [6]: 77%
- Luciferase activity RARγ [7]: 10600

SMILES: CC(C)(C)c1ccc(C(=O)Nc2ccc(CC(=O)NO)cc2)cc1 [Example 30, N-[4-(N-hydroxycarbamoylmethyl)phenyl][4-tert-butylphenyl]carboxyamide]
- Luciferase activity RARα [1]: 23500
- Elastase expression (%) [2]: 69%
- Collagen biosynthesis (%) [3]: 121%
- P.I.I. (Primary Irritation Index) [4]: 0.456
- Evaluation (skin irritation) [4]: No irritation
- Evaluation (phototoxicity) [5]: No phototoxicity (lower value than 0.5, criterion value to be estimated as no phototoxicity)
- Phototoxic index [5]: 0
- Collagenase expression (%) [6]: 83%
- Luciferase activity RARγ [7]: 12000

SMILES: Cc1ccc(C(=O)Nc2ccc(CC(=O)NO)cc2)cc1C [Example 31, N-[4-(N-hydroxycarbamoylmethyl)phenyl][3,4-dimethylphenyl]carboxyamide]
- Luciferase activity RARα [1]: 23100
- Elastase expression (%) [2]: 63%
- Collagen biosynthesis (%) [3]: 109%
- P.I.I. (Primary Irritation Index) [4]: 0.567
- Evaluation (skin irritation) [4]: No irritation
- Evaluation (phototoxicity) [5]: No phototoxicity (lower value than 0.5, criterion value to be estimated as no phototoxicity)
- Phototoxic index [5]: 0
- Collagenase expression (%) [6]: 81%
- Luciferase activity RARγ [7]: 10700

SMILES: O=C(Cc1ccc(NC(=O)C23CC4CC(CC(C4)C2)C3)cc1)NO [Example 32, N-[4-(N-hydroxycarbamoylmethyl)phenyl]adamantyl carboxyamide]
- Luciferase activity RARα [1]: 18000
- Elastase expression (%) [2]: 74%
- Collagen biosynthesis (%) [3]: 125%
- P.I.I. (Primary Irritation Index) [4]: 0.375
- Evaluation (skin irritation) [4]: No irritation
- Evaluation (phototoxicity) [5]: No phototoxicity (lower value than 0.5, criterion value to be estimated as no phototoxicity)
- Phototoxic index [5]: 0
- Collagenase expression (%) [6]: 79%
- Luciferase activity RARγ [7]: 10000

SMILES: CN(O)C(=O)Cc1ccc(NC(=O)C23CC4CC(CC(C4)C2)C3)cc1 [Example 33, 2-[4-(adamantlycarbonylamino)phenyl]-N-hydroxy-N-methylacetamide]
- Luciferase activity RARα [1]: 13400
- Elastase expression (%) [2]: 82%
- Collagen biosynthesis (%) [3]: 112%
- P.I.I. (Primary Irritation Index) [4]: 0.765
- Evaluation (skin irritation) [4]: No irritation
- Evaluation (phototoxicity) [5]: No phototoxicity (lower value than 0.5, criterion value to be estimated as no phototoxicity)
- Phototoxic index [5]: 0
- Collagenase expression (%) [6]: 70%
- Luciferase activity RARγ [7]: 11000

SMILES: Cc1ccc(NC(=O)c2ccc(C(=O)NO)cc2)cc1 [Example 35, [4-(N-hydroxycarbamoyl)phenyl]-N-[4-methylphenyl]carboxyamide]
- Luciferase activity RARα [1]: 14500
- Elastase expression (%) [2]: 71%
- Collagen biosynthesis (%) [3]: 111%
- P.I.I. (Primary Irritation Index) [4]: 0.245
- Evaluation (skin irritation) [4]: No irritation
- Evaluation (phototoxicity) [5]: No phototoxicity (lower value than 0.5, criterion value to be estimated as no phototoxicity)
- Phototoxic index [5]: 0
- Collagenase expression (%) [6]: 90%
- Luciferase activity RARγ [7]: 11300

SMILES: Cc1cccc(NC(=O)c2ccc(C(=O)NO)cc2)c1 [Example 36, [4-(N-hydroxycarbamoyl)phenyl]-N-[3-methylphenyl]carboxyamide]
- Luciferase activity RARα [1]: 16700
- Elastase expression (%) [2]: 79%
- Collagen biosynthesis (%) [3]: 121%
- P.I.I. (Primary Irritation Index) [4]: 0.456
- Evaluation (skin irritation) [4]: No irritation
- Evaluation (phototoxicity) [5]: No phototoxicity (lower value than 0.5, criterion value to be estimated as no phototoxicity)
- Phototoxic index [5]: 0
- Collagenase expression (%) [6]: 68%
- Luciferase activity RARγ [7]: 11200

SMILES: CCc1ccc(NC(=O)c2ccc(C(=O)NO)cc2)cc1 [Example 37, [4-(N-hydroxycarbamoyl)phenyl]-N-[4-ethylphenyl]carboxyamide]
- Luciferase activity RARα [1]: 19000
- Elastase expression (%) [2]: 80%
- Collagen biosynthesis (%) [3]: 121%
- P.I.I. (Primary Irritation Index) [4]: 0.456
- Evaluation (skin irritation) [4]: No irritation
- Evaluation (phototoxicity) [5]: No phototoxicity (lower value than 0.5, criterion value to be estimated as no phototoxicity)
- Phototoxic index [5]: 0
- Collagenase expression (%) [6]: 70%
- Luciferase activity RARγ [7]: 10300

SMILES: CCCc1ccc(NC(=O)c2ccc(C(=O)NO)cc2)cc1 [Example 38, [4-(N-hydroxycarbamoyl)phenyl]-N-[4-propylphenyl]carboxyamide]
- Luciferase activity RARα [1]: 17500
- Elastase expression (%) [2]: 69%
- Collagen biosynthesis (%) [3]: 109%
- P.I.I. (Primary Irritation Index) [4]: 0.567
- Evaluation (skin irritation) [4]: No irritation
- Evaluation (phototoxicity) [5]: No phototoxicity (lower value than 0.5, criterion value to be estimated as no phototoxicity)
- Phototoxic index [5]: 0
- Collagenase expression (%) [6]: 87%
- Luciferase activity RARγ [7]: 10400

SMILES: CC(C)c1ccc(NC(=O)c2ccc(C(=O)NO)cc2)cc1 [Example 39, [4-(N-hydroxycarbamoyl)phenyl]-N-[4-isopropylphenyl]carboxyamide]
- Luciferase activity RARα [1]: 18700
- Elastase expression (%) [2]: 87%
- Collagen biosynthesis (%) [3]: 105%
- P.I.I. (Primary Irritation Index) [4]: 0.145
- Evaluation (skin irritation) [4]: No irritation
- Evaluation (phototoxicity) [5]: No phototoxicity (lower value than 0.5, criterion value to be estimated as no phototoxicity)
- Phototoxic index [5]: 0
- Collagenase expression (%) [6]: 78%
- Luciferase activity RARγ [7]: 10100

SMILES: CCCCc1ccc(NC(=O)c2ccc(C(=O)NO)cc2)cc1 [Example 40, [4-(N-hydroxycarbamoyl)phenyl]-N-[4-butylphenyl]carboxyamide]
- Luciferase activity RARα [1]: 14300
- Elastase expression (%) [2]: 90%
- Collagen biosynthesis (%) [3]: 108%
- P.I.I. (Primary Irritation Index) [4]: 0.546
- Evaluation (skin irritation) [4]: No irritation
- Evaluation (phototoxicity) [5]: No phototoxicity (lower value than 0.5, criterion value to be estimated as no phototoxicity)
- Phototoxic index [5]: 0
- Collagenase expression (%) [6]: 77%
- Luciferase activity RARγ [7]: 11200
